Like-named read-outs stand apart in the source and are kept apart here. Values belong to the compound of their own block, whether it stands above or below them.
Key:
[1] = target: fibrillar Aβ aggregates (Homo sapiens, UniProt P05067); details: read-out: inhibition constants (Ki) for binding to fibrillar Aβ aggregates; cited from earlier work
[2] = target: T1, Amyloid Plaque (Homo sapiens, UniProt P05067); experiment: Inhibition of ^125I-IMPY binding in AD brain homogenates; details: read-out: Binding Affinity (Ki vs. ^125I-IMPY)
Method: Postmortem brain tissue was obtained and neuropathological diagnosis was confirmed in accordance with the NIA-Reagan Institute Consensus Group criteria. Homogenates were then prepared from dissected gray matter, pooled in phosphate buffered saline and aliquoted into 1-ml portions (100 mg wet tissue/ml), which could be stored at −70° C. for 3-6 months without loss of binding signal.
For the binding assays brain homogenates were incubated with ^125I-IMPY (0.04-0.06 nM diluted in phosphate buffered saline (PBS)) and test compound (10^−5-10^−10 M diluted in PBS containing 0.1% bovine serum albumin (BSA)). Nonspecific binding was defined in the presence of IMPY (600 nM). The bound and free radioactivity was separated by vacuum filtration followed by 2×3 ml washes of PBS. Filters containing the bound ^125I ligand were assayed in a gamma counter.

[3] = Organ distribution of ^123I-33 in normal mice; type: in vivo, ICR mice; details: i.v.; for Biodistribution Brain / % total counted / Biodistribution Pancreas / Biodistribution Pancrease: normal male mice
Method: Total activities of blood were calculated under the assumption that they were 7% of the total body weight.

[4] = tested on: CNS receptors; experiment: Selectivity against CNS receptors; details: cell wraps r7-r10: No high affinity binding to any CNS receptors
[5] = target: T1, Amyloid Plaque; details: AD brain homogenates; read-out: Binding Affinity (Ki vs. ^125I-IMPY), published values; cited from earlier work
[6] = tested on: Aβ plaques in AD brain sections; experiment: In vitro film autoradiography of macroarray brain sections; type: binding, human
Excerpt: FIG. 5 depicts in vitro film autoradiography of macroarray brain sections constructed from AD and control cases. The Aβ plaques were clearly visualized with low background labeling with two preferred radiofluorinated probes of the present invention.
(§1) To compare different probes using similar sections of human brain tissue, human macro-array brain sections from 6 confirmed AD cases and one control subject were assembled. The presence and localization of plaques on the sections was confirmed with immunohistochemical staining with monoclonal Aβ antibody 4G8 (Sigma). The frozen sections were incubated with [^125I] and [^18F]tracers (200,000-250,000 cpm/200 μL) for 1 h at room temperature. The sections were then dipped in saturated lithium carbonate in 40% EtOH (two two-minute washes) and washed with 40% EtOH (one two-minute wash) followed by rinsing with water for 30 sec. After drying, the ^125I- or ^18F-labeled sections were exposed to Kodak Biomax MR film overnight.
[^18F]tracers: Brain sections from AD subjects were obtained by freezing the brain in powdered dry ice and cut into 20 micrometer-thick sections. The sections were incubated with [^18F]tracers (200,000-250,000 cpm/200 μl) for 1 hr at room temperature. The sections were then dipped in saturated Li2CO3 in 40% EtOH (two two-minute washes) and washed with 40% EtOH (one two-minute wash) followed by rinsing with water for 30 sec. After drying, the ^18F-labeled sections were exposed to Kodak MR film overnight. The results are depicted in the film in FIG. 2.
as §1, with “[^125I]tracers: To” for “To”, “The” for “The frozen”, “[^125I]tracers” for “[^125I] and [^18F]tracers”, “Li2CO3” for “lithium carbonate”, “^125I-labeled” for “^125I- or ^18F-labeled”
A macro-array block was constructed using postmortem human brain samples consisting of seven confirmed AD cases. […] In vitro film autoradiography was carried out using these novel ^125I or ^18F labeled diphenyltriazole probes. […] The labeling pattern was consistent with that observed by immunohistochemical labeling with an antibody (4G8) specific for Aβ (data not shown).

[7] = tested on: Aβ plaques in AD brain tissue homogenates; experiment: Specific binding of radiolabeled ligands to AD and control brain tissue homogenates; set-up: species or system human; details: for specific binding, gray matter homogenates of AD / specific binding, white matter homogenates of AD brain: 0.06 nM [^125I]probe, 0.5 nM [^18F]probe
Method: FIG. 6 depicts specific binding of preferred embodiments of the present invention to pooled AD and control brain tissue homogenates. Gray and white matters were dissected from the cortical regions. Higher specific binding was detected mainly in gray matter of AD. Relatively low binding was measured in white matter homogenates of AD as well as in gray and white matter homogenates of the control brain.
AD postmortem brain tissues were obtained from University of Washington Alzheimer's Disease Research Center. The neuropathological diagnosis was confirmed by current criteria (NIA-Reagan Institute Consensus Group, 1997). Homogenates were then prepared from dissected gray matters from four pooled AD patients in phosphate buffered saline (PBS, pH 7.4) at the concentration of approximately 100 mg wet tissue/ml (motor-driven glass homogenizer with setting of 6 for 30 sec). The homogenates were aliquoted into 1 mL-portions and stored at −70° C. for up to 2 years without loss of binding signal.
Similarly, the specific binding of radioiodinated and radiofluorinated ligands (0.06 nM for [^125I]probe and 0.5 nM for [^18F]probe to homogenates, prepared from the gray and white matters of AD and control brain tissues, were carried out as described above. Nonspecific binding was determined in the presence of 2 μM of the corresponding nonradioactive probes.
To further characterize the specificity of plaque binding, we evaluated [^125I]10a and [^18F]17a by a direct in vitro binding assay using homogenates (from different brain regions) prepared from AD and control brain tissues.

[8] = mouse; for brain washout index (brain2 min/brain30 min) / remaining in the brain: in vivo; for remaining in the brain: 2 h
Method: (§2) While under isoflurane anesthesia, 0.15 mL of a 0.1% bovine serum albumin solution containing [^125I] or [^18F]tracers (5-10 μCi) was injected directly into the tail vein of ICR mice (22-25 g, male). The mice (n=3 for each time point) were sacrificed by cervical dislocation at designated time-points post injection. The organs of interest were removed and weighed, and the radioactivity was counted with an automatic gamma counter. The percentage dose per organ was calculated by a comparison of the tissue counts to suitably diluted aliquots of the injected material. The total activity of the blood was calculated under the assumption that it is 7% of the total body weight. The % dose/g of samples was calculated by comparing the sample counts with the count of the diluted initial dose.

[9] = Partition coefficient (1-octanol/buffer); type: physicochemical; details: 1-octanol / 0.1 M phosphate buffer pH 7.4
Method: Partition coefficients were measured by mixing the [^125I] or [^18F]tracer with 3 g each of 1-octanol and buffer (0.1 M phosphate, pH 7.4) in a test tube. The test tube was vortexed for 3 min at room temperature, followed by centrifugation for 5 min. Two weighed samples (0.5 g each) from the 1-octanol and buffer layers were counted in a well counter. The partition coefficient was determined by calculating the ratio of cpm/g of 1-octanol to that of buffer. Samples from the 1-octanol layer were re-partitioned until consistent partitions of coefficient values were obtained. The measurement was done in triplicate and repeated three times.
Partition coefficients were measured by mixing ^123I-33 with 3 g each of 1-octanol and buffer (0.1 M phosphate, pH 7.4) in a test tube. The test tube was vortexed for 3 min at room temperature, followed by centrifugation for 5 min. Two weighed samples (0.5 g each) from the 1-octanol and the buffer layer were counted in a well counter. The partition coefficient was determined by calculating the ratio of cpm/g of 1-octanol to that of the buffer. Samples from the 1-octanol layer were repartitioned until consistent partitions of,coefficient values were obtained from the third partition. The measurement was done in triplicate and repeated three times.

[10] = Organ distribution of [^125I] or [^18F]tracers in normal mice
Method: as §2

[11] = tested on: Aβ plaques; experiment: Labeling of Aβ plaques in AD sections by ^123I-33 at tracer concentrations; type: binding, human
[12] = Estimate of human dosimetry extrapolated from the mouse data; details: proposed 5 mCi human dose
Method: When administered i.v. to male mice, ^123I-33 entered the brain quickly and reached a peak brain concentration of 3.7% dose/g within 2 min post administration and fell to 0.25% dose/g within 60 min. […] At the proposed 5 mCi human dose the lower large intestine is estimated to receive approximately 3.8 rem, while the upper large intestine is estimated to receive approximately 3.3 rem of exposure.

T1 sequence (P05067 672-711 limits assumed): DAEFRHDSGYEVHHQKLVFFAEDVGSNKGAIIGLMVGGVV
Chain of fibrillar Aβ aggregates (P05067 672-711 limits assumed): as above

Structure (SMILES): O=C(O)c1cc(/N=N/c2ccc(-c3ccc(/N=N/c4ccc(O)c(C(=O)O)c4)cc3)cc2)ccc1O [CG, chrysamine-G]
Ki [1]: 370 nM

Structure (SMILES): CC(=C(C#N)C#N)c1ccc2cc(N(C)CCF)ccc2c1 [FDDNP, 2-(1-{6-[(2-fluoroethyl)(methyl)amino]-2-naphthyl}ethylidene)malononitrile]
Ki [5]: 239 nM

Structure (SMILES): CN(C)c1ccc(-c2cn(-c3ccc(OCC[18F])cc3)nn2)cc1 [[^18F]17a]
Aβ plaque labeling [6]: most distinctive Aβ plaque-labeling
white matter (background) labeling [6]: minimal level of background in the white matter areas
specific binding signal, homogenates of control brain tissues (gray and white matters) [7]: low
specific binding, gray matter homogenates of AD [7]: detected predominantly in the gray matter homogenates of AD
specific binding, white matter homogenates of AD brain [7]: very low or nonexistent
bone uptake (in vivo defluorination) [8]: 4.64 % dose/g
brain washout index (brain2 min/brain30 min) [8]: 2.34
remaining in the brain [8]: 1-2 % dose/g
log P [9]: 2.7

Structure (SMILES): CNc1ccc(-c2cn(-c3ccc([125I])cc3)nn2)cc1 [[^125I]10a]
brain washout index (brain2 min/brain30 min) [10]: 5.66
white matter (background) labeling [6]: significant white matter labeling
specific binding signal, homogenates of control brain tissues (gray and white matters) [7]: low
specific binding, gray matter homogenates of AD [7]: detected predominantly in the gray matter homogenates of AD
specific binding, white matter homogenates of AD brain [7]: very low or nonexistent
log P [9]: 3.0

Structure (SMILES): CN(C)c1ccc(-c2cn(-c3ccc([125I])cc3)nn2)cc1 [[^125I]10b]
brain washout index (brain2 min/brain30 min) [10]: 3.72
log P [9]: 3.4

More lines, main results first:

Ki [2]: 7.5 ± 0.5 nM
Biodistribution Brain ([3]; 2 min): 3.69 ± 0.14 % dose/g
Biodistribution Brain ([3]; 60 min): 0.25 ± 0.03 % dose/g
Selectivity [4]: No high
Structure (SMILES): CN(C)c1ccc(-c2cn(-c3ccc(OCCO)c([123I])c3)nn2)cc1 [Compound 33, 2-(4-(4-(4-(dimethylamino)phenyl)-1H-1,2,3-triazol-1-yl)-2-iodophenoxy)ethanol]

bone uptake (in vivo defluorination) [8]: 18.59 % dose/g
brain washout index (brain2 min/brain30 min) [8]: 2.31
remaining in the brain [8]: 1-2 % dose/g
log P [9]: 2.7
Structure (SMILES): CN(C)c1ccc(-c2cn(-c3ccc(OCCC[18F])cc3)nn2)cc1 [[^18F]17b]
Aβ plaque labeling [6]: most distinctive Aβ plaque-labeling
white matter (background) labeling [6]: minimal level of background in the white matter areas

estimated exposure of lower large intestine [12]: approximately 3.8 rem
estimated exposure of upper large intestine [12]: approximately 3.3 rem
estimated human effective dose (ED) [12]: approximately 1.26 rem
% total counted ([3]; 2 min): 90.41 ± 5.38%
Biodistribution Pancreas ([3]; 2 min): 0.90 ± 0.12 % dose/organ
Biodistribution Pancrease ([3]; 2 min): 5.32 ± 0.08 % dose/g
% total counted ([3]; 60 min): 81.43 ± 5.66%
Biodistribution Pancreas ([3]; 60 min): 0.25 ± 0.11 % dose/organ
Biodistribution Pancrease ([3]; 60 min): 1.35 ± 0.52 % dose/g
% total counted ([3]; 120 min): 80.05 ± 6.33%
Biodistribution Pancreas ([3]; 120 min): 0.19 ± 0.09 % dose/organ
Biodistribution Pancrease ([3]; 120 min): 1.09 ± 0.46 % dose/g
% total counted ([3]; 180 min): 81.95 ± 4.47%
Biodistribution Pancreas ([3]; 180 min): 0.22 ± 0.03 % dose/organ
Biodistribution Pancrease ([3]; 180 min): 1.29 ± 0.14 % dose/g
logD [9]: 3.25
logP ([9]; 1-octanol/buffer (0.1 M phosphate)): 3.25
Structure (SMILES): CN(C)c1ccc(-c2cn(-c3ccc(OCCO)c([123I])c3)nn2)cc1 [^123I-33, 2-(4-(4-(4-(dimethylamino)phenyl)-1H-1,2,3-triazol-1-yl)-2-[^123I]iodophenoxy)ethanol]
labeling of Aβ plaques in sections from patients with pathologically confirmed AD [11]: specifically labeled Aβ plaques
brain penetration and clearance ([3]; normal mice): readily penetrated and was rapidly cleared from the brain

From patent US20110158907A1, “DIPHENYL-HETEROARYL DERIVATIVES AND THEIR USE FOR BINDING AND IMAGING AMYLOID PLAQUES” (The Trustees of the Univeristy of Pennsylvania, priority 2007, published 2011)
